Among the data in patent US10196364B2, “Pyrimidine carboxamides as sodium channel blockers” (Purdue Pharma L.P., priority 2013, dated 2019) are IC50, Ki and Kd values, retold here.

Structures are written as SMILES. Read-outs that look alike come from different tables or passages of the source.

As usually defined, the IC50 is the concentration needed to halve the response being measured.

Format in all cases: cell-based
Assay [1] addresses T1, human Nav1.7 (Homo sapiens, UniProt Q15858). As to the kind of experiment: FLIPR membrane potential dye assay (alternative fluorescence assay) in Nav1.7 expressing cells. The following applies: Table 7.
In the next assay the target is hNav1.7 (Homo sapiens, UniProt Q15858). As to the kind of experiment: Electrophysiology (EP) whole-cell patch clamp assay in hNav1.7 expressing HEK-293 cells. Conditions: for Ki: affinity for inactivated channels, read-out: Nav1.7 Activity (μM) EP assay Ki; for Kd: resting block dissociation constant, read-out: Nav1.7 Activity (μM) EP assay Kr. The protocol: The hNav1.7 expressing HEK-293 cells were plated on 35 mm culture dishes pre-coated with poly-D-lysine in standard DMEM culture media (Mediatech, Inc., Herndon, Va.) and incubated in a 5% CO2 incubator at 37° C. Cultured cells were used approximately 12-48 h after plating.
On the day of experimentation, the 35 mm dish was placed on the stage of an inverted microscope equipped with a perfusion system that continuously perfuses the culture dish with fresh recording media. A gravity driven superfusion system was used to apply test solutions directly to the cell under evaluation. This system consists of an array of glass pipette glass connected to a motorized horizontal translator. The outlet of the shooter was positioned approximately 100 μm from the cell of interest.
Whole cell currents were recorded using the whole-cell patch clamp configuration using an Axopatch 200B amplifier (Axon Instruments, Foster City Calif.), 1322A A/D converter (Axon Instruments) and pClamp software (v. 8; Axon Instruments) and stored on a personal computer. Gigaseals were formed and the whole-cell configuration was established in voltage clamp mode, and membrane currents generated by hNav1.7 were recorded in gap-free mode. Borosilicate glass pipettes have resistance values between 1.5 and 2.0 MΩ when filled with pipette solution and series resistance (<5 MΩ) was compensated 75-80%. Signals were sampled at 50 kHz and low pass filtered at 3 kHz.
After establishing the whole-cell configuration in voltage clamp mode, two voltage protocols were run to establish: 1) the holding potential; and 2) the test potential for each cell.
To determine a membrane potential at which the majority of channels are in the resting state, a standard steady-state inactivation (SSIN) protocol was run using 100 ms prepulses×10 mV depolarizing steps. The holding potential for testing resting block (Vh1) was 20 mV more hyperpolarized than the first potential where inactivation is observed with the inactivation protocol.
From this holding potential a standard I-V protocol was run to determine the potential at which the maximal current (Imax) was elicited. This potential was the test potential (Vt).
The compound testing protocol was a series of 10 ms depolarizations from the Vh1 (determined from the SSIN) to the Vt (determined from the I-V protocol) repeated every 10-15 seconds. […] Washout of the compound was attempted by superfusing with control solution once steady-state block was observed. The fractional response was calculated as follows: FR=I(after drug)/I(control), where I is the peak current amplitude and was used for estimating resting block dissociation constant, Kr: Kr=[drug]*{FR/(1−FR)}, where [drug] is the concentration of a drug.
To assess the block of inactivated channels the holding potential was depolarized such that 20-50% of the current amplitude was reduced when pulsed to the same Vt as above. The magnitude of this depolarization depends upon the initial current amplitude and the rate of current loss due to slow inactivation. This was the second holding potential (Vh2). The current reduction was recorded to determine the fraction of available channels at this potential (h). h=I@Vh2/Imax.
At this membrane voltage a proportion of channels are in the inactivated state, and thus inhibition by a blocker includes interaction with both resting and inactivated channels.
To determine the potency of the test compound on inactivated channels, a series of currents were elicited by 10 ms voltage steps from Vh2 to Vt every 10-15 seconds. After establishing a stable baseline, the low concentration of the compound was applied. Multiple cumulative concentrations may have to be applied to identify a concentration that will block between 40-60% of the current. Washout was attempted to re-establish baseline. Fractional responses were measured with respect to a projected baseline to determine Kapp. Kapp=[drug]*{FR/(1−FR)}, where [drug] is the concentration of a drug. […]
A general note: In patch-clamp work, channel activity is measured electrically.

Assay [2] deals with T1, human Nav1.7. As to the kind of experiment: FLIPR sodium dye assay (CoroNa Green AM Na+ dye, primary fluorescence assay) in recombinant Nav1.7/HEK293 cells. The following applies: Table 6; CoroNa Green AM Na+ dye primary fluorescence assay; read-out: Nav1.7 Activity (μM) FLIPR assay IC50.

T1 sequence (Q15858 1-1977 isoform Q15858-3): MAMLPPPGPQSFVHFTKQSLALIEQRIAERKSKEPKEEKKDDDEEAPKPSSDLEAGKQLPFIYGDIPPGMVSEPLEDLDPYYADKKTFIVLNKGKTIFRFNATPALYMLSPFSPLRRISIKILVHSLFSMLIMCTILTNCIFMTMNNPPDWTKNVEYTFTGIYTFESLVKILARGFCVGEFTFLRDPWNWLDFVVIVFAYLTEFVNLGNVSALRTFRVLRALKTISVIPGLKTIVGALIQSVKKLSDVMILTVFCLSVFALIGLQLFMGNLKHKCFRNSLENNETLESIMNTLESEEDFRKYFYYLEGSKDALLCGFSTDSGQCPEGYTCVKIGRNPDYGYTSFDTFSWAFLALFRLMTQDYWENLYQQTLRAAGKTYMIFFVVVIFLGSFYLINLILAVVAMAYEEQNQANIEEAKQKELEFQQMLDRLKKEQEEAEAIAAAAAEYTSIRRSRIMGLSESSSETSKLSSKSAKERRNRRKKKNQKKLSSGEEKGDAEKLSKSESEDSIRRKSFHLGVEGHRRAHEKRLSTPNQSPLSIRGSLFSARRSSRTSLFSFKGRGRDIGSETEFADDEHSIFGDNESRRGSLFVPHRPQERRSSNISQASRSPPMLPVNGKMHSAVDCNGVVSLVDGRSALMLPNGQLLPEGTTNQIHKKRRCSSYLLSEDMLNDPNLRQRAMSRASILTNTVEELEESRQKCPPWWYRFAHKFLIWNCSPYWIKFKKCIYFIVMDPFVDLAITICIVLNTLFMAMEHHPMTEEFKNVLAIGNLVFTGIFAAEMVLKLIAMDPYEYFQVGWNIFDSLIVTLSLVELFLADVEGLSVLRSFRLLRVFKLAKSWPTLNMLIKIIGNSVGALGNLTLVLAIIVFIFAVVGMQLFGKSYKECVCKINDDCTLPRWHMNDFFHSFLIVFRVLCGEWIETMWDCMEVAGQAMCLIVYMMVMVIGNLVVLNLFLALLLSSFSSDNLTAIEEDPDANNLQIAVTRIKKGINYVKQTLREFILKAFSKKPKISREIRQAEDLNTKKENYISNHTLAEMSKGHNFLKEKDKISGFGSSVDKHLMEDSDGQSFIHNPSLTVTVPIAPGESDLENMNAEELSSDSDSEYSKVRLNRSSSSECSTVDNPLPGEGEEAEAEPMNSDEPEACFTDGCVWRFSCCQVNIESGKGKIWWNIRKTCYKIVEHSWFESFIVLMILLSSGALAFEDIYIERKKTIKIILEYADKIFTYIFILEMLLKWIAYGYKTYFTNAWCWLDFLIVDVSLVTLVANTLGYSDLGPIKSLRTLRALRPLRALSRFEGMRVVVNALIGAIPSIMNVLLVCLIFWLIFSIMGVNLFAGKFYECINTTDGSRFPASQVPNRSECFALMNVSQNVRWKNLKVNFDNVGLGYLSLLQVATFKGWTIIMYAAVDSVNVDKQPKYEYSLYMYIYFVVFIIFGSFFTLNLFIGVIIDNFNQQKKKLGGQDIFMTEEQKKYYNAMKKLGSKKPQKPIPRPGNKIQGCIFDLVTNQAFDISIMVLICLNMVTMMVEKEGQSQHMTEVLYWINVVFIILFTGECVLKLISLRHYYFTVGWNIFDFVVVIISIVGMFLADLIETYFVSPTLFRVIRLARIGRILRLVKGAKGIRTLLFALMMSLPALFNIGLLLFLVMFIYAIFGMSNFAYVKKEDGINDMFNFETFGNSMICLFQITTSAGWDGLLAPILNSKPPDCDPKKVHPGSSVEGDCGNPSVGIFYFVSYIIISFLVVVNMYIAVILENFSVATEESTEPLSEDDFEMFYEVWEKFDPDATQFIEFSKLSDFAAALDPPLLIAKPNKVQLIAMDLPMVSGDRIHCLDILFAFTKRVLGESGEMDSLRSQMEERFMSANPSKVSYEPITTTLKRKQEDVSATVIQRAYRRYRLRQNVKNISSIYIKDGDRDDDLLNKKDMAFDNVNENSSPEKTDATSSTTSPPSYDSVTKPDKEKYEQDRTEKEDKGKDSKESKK
Sequence of hNav1.7 (Q15858 1-1977 isoform Q15858-3): as above

With `CCN(CC)Cc1cc(C(F)(F)F)ccc1Oc1ccc(-c2nc(O[C@H]3CCNC3=O)cc(C(N)=O)n2)cc1` [Cpd No. 216, (S)-2-(4-(2-((diethylamino)-methyl)-4-(trifluoromethyl)-phenoxy)phenyl)-6-((2-oxopyrrolidin-3-yl)oxy)-pyrimidine-4-carboxamide], the IC50 against human Nav1.7 [1] is 1.21 µM.

In turn, `NC(=O)c1cc(N[C@H]2CCNC2=O)nc(-c2ccc(Oc3ccc(C(F)F)cn3)cc2)n1` [Cpd No. 220, (S)-2-(4-((5-(difluoromethyl)-pyridin-2-yl)oxy)phenyl)-6-((2-oxopyrrolidin-3-yl)amino)-pyrimidine-4-carboxamide] yielded an IC50 against human Nav1.7 [1] of 2.76 µM.

In the case of `NC(=O)c1cc(O[C@H]2CCNC2=O)nc(-c2ccc(Oc3ccc(C(F)(F)F)cc3CN3CCCC3)cc2)n1` [Cpd No. 230, (S)-6-((2-oxopyrrolidin-3-yl)oxy)-2-(4-(2-(pyrrolidin-1-ylmethyl)-4-(trifluoromethyl)-phenoxy)phenyl)pyrimidine-4-carboxamide], the 50% inhibitory concentration (IC50) at human Nav1.7 [1] is 1.72 µM. Moreover, the Ki on hNav1.7 (Table 7) was determined as 0.74 µM.

On human Nav1.7 [1], `C[C@H](Nc1cc(C(N)=O)nc(-c2ccc(N3Cc4cc(Cl)ccc4OCC3=O)cc2)n1)C(N)=O` [Cpd No. 222, (S)-6-((1-amino-1-oxopropan-2-yl)amino)-2-(4-(7-chloro-3-oxo-2,3-dihydrobenzo-[f][1,4]oxazepin-4(5H)-yl)phenyl)pyrimidine-4-carboxamide] showed a half-maximal inhibitory concentration (IC50) above 20 µM.

As for `NC(=O)c1cc(O[C@H]2CCNC2=O)nc(-c2ccc(Oc3ccc(C4CC4)cn3)cc2)n1` [Cpd No. 234, (S)-2-(4-((5-cyclopropylpyridin-2-yl)oxy)phenyl)-6-((2-oxopyrrolidin-3-yl)oxy)-pyrimidine-4-carboxamide], the IC50 at human Nav1.7 [1] amounted to 1.2 µM. The Ki at hNav1.7 (Table 7) is 0.67 µM.

With `C[C@H](Oc1cc(C(N)=O)nc(-c2ccc(Oc3ccc(C(F)(F)F)cn3)cc2)n1)C(N)=O` [compound 146, (S)-6-((1-amino-1-oxopropan-2-yl)oxy)-2-(4-((5-(trifluoromethyl)pyridin-2-yl)oxy)phenyl)pyrimidine-4-carboxamide], at hNav1.7 (Table 6), the Ki is 1.25 µM and the Kd was 18.3 µM. Also, the IC50 on human Nav1.7 [2] came out at 0.52 µM.

With `CC(=O)c1ccc(Oc2ccc(-c3nc(N[C@H]4CCNC4=O)cc(C(N)=O)n3)cc2)nc1` [Cpd No. 217, (S)-2-(4-((5-acetylpyridin-2-yl)oxy)phenyl)-6-((2-oxo-pyrrolidin-3-yl)amino)-pyrimidine-4-carboxamide], the IC50 at human Nav1.7 [1] is above 20 µM.

In the case of `NC(=O)c1cc(N[C@H]2CCNC2=O)nc(-c2ccc(Oc3ccc(C4CC4)cn3)cc2)n1` [compound 142, (S)-2-(4-((5-cyclopropylpyridin-2-yl)oxy)phenyl)-6-((2-oxopyrrolidin-3-yl)amino)pyrimidine-4-carboxamide], on hNav1.7 (Table 6), the Ki worked out at 0.3 µM and the Kd was found to be 26.8 µM. Further, the IC50 on human Nav1.7 [2] is 0.064 µM.

As for `NC(=O)c1cc(N[C@H]2CCNC2=O)nc(N2[C@@H]3CC[C@H]2C[C@H](Oc2ccc(C(F)(F)F)cn2)C3)n1` [Cpd No. 183, 6-(((S)-2-oxopyrrolidin-3-yl)amino)-2-((1R,3R,5S)-3-((5-(trifluoromethyl)pyridin-2-yl)oxy)-8-azabicyclo[3.2.1]octan-8-yl)pyrimidine-4-carboxamide], the Ki at hNav1.7 (Table 6) was found to be 0.49 µM. In addition, the IC50 at human Nav1.7 [2] stood at 1.27 µM.

For the molecule `C[C@H](Nc1cc(C(N)=O)nc(-c2ccc(N3CCOc4cc(F)ccc43)cc2)n1)C(N)=O` [Cpd No. 223, (S)-6-((1-amino-1-oxopropan-2-yl)amino)-2-(4-(7-fluoro-2,3-dihydro-4H-benzo[b][1,4]oxazin-4-yl)phenyl)pyrimidine-4-carboxamide], on human Nav1.7 [1], the IC50 came to 3.78 µM.

On to `Cn1cc(COc2ccc(-c3nc(N[C@H]4CCNC4=O)cc(C(N)=O)n3)cc2)cn1` [Cpd No. 233, (S)-2-(4-((1-methyl-1H-pyrazol-4-yl)methoxy)phenyl)-6-((2-oxopyrrolidin-3-yl)amino)-pyrimidine-4-carboxamide], for which the IC50 against human Nav1.7 [1] lay in the range of 10 to 20 µM.

For the molecule `NC(=O)c1cc(O[C@H]2CCNC2=O)nc(-c2ccc(Oc3ccc(C(F)(F)F)cc3)cc2CN2CCOCC2)n1` [Cpd No. 232, (S)-2-(2-(morpholinomethyl)-4-(4-(trifluoromethyl)-phenoxy)phenyl)-6-((2-oxopyrrolidin-3-yl)oxy)-pyrimidine-4-carboxamide], at human Nav1.7 [1], the IC50 was in the range of 10 to 20 µM.

For the molecule `Cn1cc(-c2ccc(-c3nc(N[C@H]4CCNC4=O)cc(C(N)=O)n3)cc2)c2ccc(C(F)(F)F)cc21` [Cpd No. 218, (S)-2-(4-(1-methyl-6-(trifluoromethyl)-1H-indol-3-yl)phenyl)-6-((2-oxopyrrolidin-3-yl)amino)pyrimidine-4-carboxamide], half-maximal inhibition at human Nav1.7 [1] (IC50) required 4.03 µM.

Consider `C[C@H](Nc1cc(C(N)=O)nc(N2CC[C@@H](Oc3ccc(C(F)(F)F)cc3)C2)n1)C(N)=O` [Cpd No. 226, 6-(((S)-1-amino-1-oxopropan-2-yl)amino)-2-((R)-3-(4-(trifluoromethyl)-phenoxy)pyrrolidin-1-yl)pyrimidine-4-carboxamide], for which the IC50 against human Nav1.7 [1] is 3.23 µM.

At human Nav1.7 [1], `NC(=O)c1cc(O[C@H]2CCNC2=O)nc(-c2ccc(Oc3ccc(C(F)(F)F)cc3)cc2CN2CCCCC2)n1` [Cpd No. 231, (S)-6-((2-oxopyrrolidin-3-yl)oxy)-2-(2-(piperidin-1-ylmethyl)-4-(4-(trifluoromethyl)-phenoxy)phenyl)pyrimidine-4-carboxamide] registered an IC50 above 20 µM.

As for `NC(=O)c1cc(N[C@H]2CCNC2=O)nc(N2C3CCC2CC(Oc2ccc(C(F)(F)F)cn2)C3)n1` (stereo partly drawn) [compound 140, 6-(((S)-2-oxopyrrolidin-3-yl)amino)-2-(3-((5-(trifluoromethyl)pyridin-2-yl)oxy)-8-azabicyclo[3.2.1]octan-8-yl)pyrimidine-4-carboxamide], at hNav1.7 (Table 6), the Ki came out at 2.55 µM and the Kd was determined as 46.2 µM. Moreover, on human Nav1.7 [2], the IC50 was found to be 0.38 µM.

Molecule `NC(=O)c1cc(N[C@H]2CCNC2=O)nc(-c2ccc(N3Cc4cc(Cl)ccc4OCC3=O)cc2)n1` [Cpd No. 221, (S)-2-(4-(7-chloro-3-oxo-2,3-dihydrobenzo[f][1,4]oxazepin-4(5H)-yl)phenyl)-6-((2-oxopyrrolidin-3-yl)amino)-pyrimidine-4-carboxamide] showed an IC50 against human Nav1.7 [1] above 20 µM.

In the case of `Cn1nccc1-c1cc(Oc2ccc(C(F)(F)F)cc2)ccc1-c1nc(N[C@H]2CCNC2=O)cc(C(N)=O)n1` [Cpd No. 219, (S)-2-(2-(1-methyl-1H-pyrazol-5-yl)-4-(4-(trifluoromethyl)-phenoxy)phenyl)-6-((2-oxopyrrolidin-3-yl)amino)-pyrimidine-4-carboxamide], the IC50 against human Nav1.7 [1] is 0.94 µM.

`NC(=O)c1cc(N[C@H]2CCNC2=O)nc(-c2ccc(Oc3cc(Cl)ccc3F)cc2)n1` [compound 117, (S)-2-(4-(5-chloro-2-fluorophenoxy)phenyl)-6-((2-oxopyrrolidin-3-yl)amino)pyrimidine-4-carboxamide]: on hNav1.7 (Table 6), the Ki was 0.027 µM and the Kd is 0.83 µM. Besides, on human Nav1.7 [2], the IC50 amounted to 0.2 µM.

As to `NC(=O)c1cc(N[C@H]2CCNC2=O)nc(-c2ccc(Oc3ccc(Cl)cn3)cc2)n1` [compound 133, (S)-2-(4-((5-chloropyridin-2-yl)oxy)phenyl)-6-((2-oxopyrrolidin-3-yl)amino)pyrimidine-4-carboxamide], at hNav1.7 (Table 6), the Ki was 0.57 µM and the Kd came to 7.17 µM. The IC50 on human Nav1.7 [2] came out at 0.39 µM.

At human Nav1.7 [1], `C[C@H](Nc1cc(C(N)=O)nc(N2CC[C@H](Oc3ccc(C(F)(F)F)cc3)C2)n1)C(N)=O` [Cpd No. 225, 6-(((S)-1-amino-1-oxopropan-2-yl)amino)-2-((S)-3-(4-(trifluoro-methyl)phenoxy)pyrrolidin-1-yl)pyrimidine-4-carboxamide] displayed an IC50 of 10 to 20 µM.
